From ChEMBL document CHEMBL6134860, “Discovery and optimization of a novel carboxamide scaffold with selective antimalarial activity” (Eur J Med Chem, 2025)

Tests used:
[1] = Cytotoxicity against human HepG2 cells measured after 72 hrs by hoechst 33342 staining based imaging assay; type: toxicity, cell-based
Plasmodium falciparum = experiment: microbe, parasite or virus in culture; type: functional, organism-based; conditions: W2, 72 h

| SMILES | CC50 at 72 h ([1]; read-out: CC50) [µM] | CC50 at 72 h ([1]; read-out: pCC50 (converted)) [µM] | EC50 (Plasmodium falciparum; read-out: EC50) [µM] | EC50 (Plasmodium falciparum; read-out: pEC50 (converted)) [µM] |
| --- | --- | --- | --- | --- |
| O=C1c2sc(-c3ccc(Cl)cc3)nc2CN1c1ccc(Cl)cc1 | > 10 | > 10 | > 10 | > 10 |
| CN(C(=O)c1cnc(-c2ccc(Cl)cc2)o1)c1ccc(Cl)cc1 | > 10 | > 10 | > 10 | > 10 |
| Cc1ccc(N(C)C(=O)c2ncn(-c3ccc(Cl)cc3)n2)cc1C | > 10 | > 10 | – | 2.34 |
| COc1ccc(N(C)C(=O)c2ncn(-c3ccc(C)cc3)n2)cc1 | > 10 | > 10 | > 4.11 | > 4.07 |
| CN(C(=O)c1ncn(-c2ccc(Cl)cc2)n1)c1ccc(C(C)(C)C)cc1 | > 1.76 | > 1.78 | > 8.03 | > 7.94 |
| CN(C(=O)c1ncn(-c2ccc(Cl)cc2)n1)c1ccc([N+](=O)[O-])cc1 | > 10 | > 10 | – | 2.29 |
| O=C(c1ccc(Cl)cc1)c1ncc(-c2ccc(Cl)cc2)o1 | > 10 | > 10 | > 10000 | > 10 |
| Cc1cccc(N(C)C(=O)c2ncn(-c3ccc(Cl)cc3)n2)c1 | > 10 | > 10 | > 4.03 | > 4.07 |
| CC(=O)c1ccc(NC(=O)c2ncn(-c3ccc(Cl)cc3)n2)cc1 | > 10 | > 10 | > 10 | > 10 |
| Cc1cccc(N(C)C(=O)c2ncn(-c3ccc(C(C)C)cc3)n2)c1 | > 10 | > 10 | > 3.33 | > 3.31 |
| CN(C(=O)c1cnc(-c2ccc(Cl)cc2)[nH]1)c1ccc(Cl)cc1 | > 10 | > 10 | > 2.26 | > 2.24 |
| CCc1ccc(-n2cnc(C(=O)N(C)c3cccc(C)c3)n2)cc1 | > 10 | > 10 | > 4.26 | > 4.27 |
| Cc1ccc(-n2cnc(C(=O)N(C)c3ccc(C)c(C)c3)n2)cc1 | > 10 | > 10 | > 6.93 | > 6.92 |
| O=C(Nc1ccc(F)cc1)c1ncn(-c2ccc(Cl)cc2)n1 | > 10 | > 10 | > 5.88 | > 5.89 |
| Cc1ccc(N(C)C(=O)c2ncn(-c3ccc(C(C)C)cc3)n2)cc1C | > 10 | > 10 | > 3.86 | > 3.89 |
| CCc1ccc(N(C)C(=O)c2ncn(-c3ccc(Cl)cc3)n2)cc1 | > 10 | > 10 | > 5.24 | > 5.25 |
| COc1ccc(-n2cnc(C(=O)N(C)c3ccc(Cl)cc3)n2)cc1 | > 10 | > 10 | > 3.86 | > 3.89 |
| Cc1ccc(C(=O)N(C)c2ncn(-c3ccc(C)cc3)n2)cc1 | > 10 | > 10 | > 3.38 | > 3.39 |
| O=C(Nc1ccc(Cl)c(Cl)c1)c1ncn(-c2ccc(Cl)cc2)n1 | > 10 | > 10 | > 10 | > 10 |
| Cc1ccc(NC(=O)c2ncn(-c3ccc(Cl)cc3)n2)cc1C | > 10 | > 10 | > 2.89 | > 2.88 |
| COc1ccc(N(C)C(=O)c2ncn(-c3ccc(OC)cc3)n2)cc1 | > 10 | > 10 | > 10 | > 10 |

| SMILES | CC50 at 72 h ([1]; read-out: CC50) [µM] | CC50 at 72 h ([1]; read-out: pCC50 (converted)) [µM] | EC50 (Plasmodium falciparum; read-out: EC50) [µM] | EC50 (Plasmodium falciparum; read-out: pEC50 (converted)) [µM] |
| --- | --- | --- | --- | --- |
| CN(C(=O)c1ncn(-c2ccc(Cl)cc2)n1)c1ccc(F)cc1 | > 10 | > 10 | – | 1.78 |
| CN(C(=O)c1cc(-c2ccc(Cl)cc2)ccn1)c1ccc(Cl)cc1 | – | – | 0.169 | 0.17 |
| Cc1ccc(-n2cnc(C(=O)N(C)c3cccc(C)c3)n2)cc1 | > 10 | > 10 | > 2.82 | > 2.82 |
| CN(C(=O)c1ncn(-c2ccc(Cl)cc2)n1)c1ccc(Cl)cc1 | > 10 | > 10 | – | 0.525 |
| CN(C(=O)c1cnc(-c2ccc(Cl)cc2)s1)c1ccc(Cl)cc1 | > 10 | > 10 | > 10 | > 10 |
| O=C(c1ccc(Cl)cc1)c1cc(-c2ccc(Cl)cc2)ccn1 | > 10 | > 10 | > 10000 | > 10 |
| Cc1ccc(-n2cnc(NC(=O)c3ccc(Cl)cc3)n2)cc1 | > 10 | > 10 | > 2.99 | > 3.02 |
| Cc1ccc(N(C)C(=O)c2cn(-c3ccc(C)cc3)nn2)cc1 | > 10 | > 10 | > 10 | > 10 |
| O=C(Nc1ccc(Cl)cc1)c1ncn(-c2ccc(Cl)cc2)n1 | > 10 | > 10 | > 6.44 | > 6.46 |
| O=C(Nc1ccc(C(F)(F)F)cc1)c1ncn(-c2ccc(Cl)cc2)n1 | > 10 | > 10 | > 6.44 | > 6.46 |
| CN(C(=O)c1cn(-c2ccc(Cl)cc2)nn1)c1ccc(Cl)cc1 | > 10 | > 10 | > 10 | > 10 |
| Cc1ccc(-c2ncc(C(=O)N(C)c3ccc(Cl)cc3)s2)cc1 | > 10 | > 10 | > 10 | > 10 |
| Cc1ccc(-n2cnc(N(C)C(=O)c3ccc(Cl)cc3)n2)cc1 | > 10 | > 10 | > 1.8 | > 1.82 |
| CN(C(=O)c1ncc(-c2ccc(Cl)cc2)[nH]1)c1ccc(Cl)cc1 | > 10 | > 10 | > 7.09 | > 7.08 |
| Cc1ccc(-c2nc(C)c(C(=O)N(C)c3ccc(Cl)cc3)s2)cc1 | > 10 | > 10 | > 4.78 | > 4.79 |
| O=C(Nc1ccc(-c2cc3ccccc3oc2=O)cc1)c1cccc2ccccc12 | 1.16 | 1.15 | > 4.05 | > 4.07 |
| CN(C(=O)c1ccc(Cl)cc1)c1ncn(-c2ccc(Cl)cc2)n1 | > 10 | > 10 | > 1.52 | > 1.51 |
| Cc1ccc(-n2cnc(C(=O)N(C)c3ccc(Cl)cc3)n2)cc1 | > 10 | > 10 | 1.68 | 1.7 |
| COc1ccc(-n2cnc(C(=O)N(C)c3cccc(C)c3)n2)cc1 | > 10 | > 10 | > 5.77 | > 5.75 |
| Cc1ccc(-n2cnc(C(=O)Nc3ccc(Cl)cc3)n2)cc1 | > 10 | > 10 | > 10 | > 10 |
| COc1ccc(N(C)C(=O)c2ncn(-c3ccc(Cl)cc3)n2)cc1 | > 10 | > 10 | – | 1.91 |

| SMILES | CC50 at 72 h ([1]; read-out: CC50) [µM] | CC50 at 72 h ([1]; read-out: pCC50 (converted)) [µM] | EC50 (Plasmodium falciparum; read-out: EC50) [µM] | EC50 (Plasmodium falciparum; read-out: pEC50 (converted)) [µM] |
| --- | --- | --- | --- | --- |
| Cc1nc(-c2ccc(Cl)cc2)sc1C(=O)N(C)c1ccc(Cl)cc1 | > 10 | > 10 | > 10 | > 10 |
| Cc1nc(-c2ccc(Cl)cc2)oc1C(=O)N(C)c1ccc(Cl)cc1 | > 10 | > 10 | > 4.34 | > 4.37 |
| Cc1ccc(-n2cc(C(=O)N(C)c3ccc(Cl)cc3)nn2)cc1 | > 10 | > 10 | > 10 | > 10 |
| COc1ccc(-n2cnc(C(=O)N(C)c3ccc(C)c(C)c3)n2)cc1 | > 10 | > 10 | > 10 | > 10 |
| CN(C(=O)c1ncn(-c2ccc(Cl)cc2)n1)c1ccccc1 | > 10 | > 10 | > 13.8 | > 13.8 |
| Cc1ccc(-c2cnc(C(=O)N(C)c3ccc(Cl)cc3)s2)cc1 | > 10 | > 10 | > 10 | > 10 |
| CC(=O)c1ccc(N(C)C(=O)c2ncn(-c3ccc(Cl)cc3)n2)cc1 | > 10 | > 10 | – | 2.4 |
| CCc1ccc(NC(=O)c2ncn(-c3ccc(Cl)cc3)n2)cc1 | > 10 | > 10 | > 6.93 | > 6.92 |
| [2H]C([2H])([2H])N(C(=O)c1ncc(-c2ccc(Cl)cc2)o1)c1ccc(Cl)cc1 | – | – | 388 | 0.389 |
| CN(C(=O)c1ncn(-c2ccc(Cl)cc2)n1)c1ccc(C(F)(F)F)cc1 | > 6.93 | > 6.92 | – | 3.8 |
| Cc1ccc(N(C)C(=O)c2cn(-c3ccc(Cl)cc3)nn2)cc1 | > 10 | > 10 | > 10 | > 10 |
| CN(C(=O)c1ncc(-c2ccc(Cl)cc2)s1)c1ccc(Cl)cc1 | > 10 | > 10 | > 6.75 | > 6.76 |
| Cc1ccc(-c2nc(C)c(C(=O)N(C)c3ccc(Cl)cc3)o2)cc1 | > 10 | > 10 | > 8.87 | > 8.91 |
| CN(C(=O)c1cncc(-c2ccc(Cl)cc2)c1)c1ccc(Cl)cc1 | > 10 | > 10 | – | – |
| O=C(Nc1ccc([N+](=O)[O-])cc1)c1ncn(-c2ccc(Cl)cc2)n1 | > 10 | > 10 | > 10 | > 10 |
| Cc1ccc(-c2ncc(C(=O)N(C)c3ccc(Cl)cc3)o2)cc1 | > 10 | > 10 | > 10 | > 10 |
| Cc1ccc(-c2cnc(C(=O)N(C)c3ccc(Cl)cc3)[nH]2)cc1 | > 10 | > 10 | > 10 | > 10 |
| CN(C(=O)c1ncn(-c2ccc(Cl)cc2)n1)c1ccc(Cl)c(Cl)c1 | > 10 | > 10 | – | 0.933 |
| Cc1ccc(C(=O)Nc2ncn(-c3ccc(Cl)cc3)n2)cc1 | > 10 | > 10 | > 10 | > 10 |
